Our source for the IC50 values is US9187484B2 (Southern Research Institute, priority 2012, dated 2015).

A word on the IC50: it is the point on the concentration scale where inhibition reaches its midpoint.

T1 sequence (Q5S007 970-2527 G2019S limits assumed): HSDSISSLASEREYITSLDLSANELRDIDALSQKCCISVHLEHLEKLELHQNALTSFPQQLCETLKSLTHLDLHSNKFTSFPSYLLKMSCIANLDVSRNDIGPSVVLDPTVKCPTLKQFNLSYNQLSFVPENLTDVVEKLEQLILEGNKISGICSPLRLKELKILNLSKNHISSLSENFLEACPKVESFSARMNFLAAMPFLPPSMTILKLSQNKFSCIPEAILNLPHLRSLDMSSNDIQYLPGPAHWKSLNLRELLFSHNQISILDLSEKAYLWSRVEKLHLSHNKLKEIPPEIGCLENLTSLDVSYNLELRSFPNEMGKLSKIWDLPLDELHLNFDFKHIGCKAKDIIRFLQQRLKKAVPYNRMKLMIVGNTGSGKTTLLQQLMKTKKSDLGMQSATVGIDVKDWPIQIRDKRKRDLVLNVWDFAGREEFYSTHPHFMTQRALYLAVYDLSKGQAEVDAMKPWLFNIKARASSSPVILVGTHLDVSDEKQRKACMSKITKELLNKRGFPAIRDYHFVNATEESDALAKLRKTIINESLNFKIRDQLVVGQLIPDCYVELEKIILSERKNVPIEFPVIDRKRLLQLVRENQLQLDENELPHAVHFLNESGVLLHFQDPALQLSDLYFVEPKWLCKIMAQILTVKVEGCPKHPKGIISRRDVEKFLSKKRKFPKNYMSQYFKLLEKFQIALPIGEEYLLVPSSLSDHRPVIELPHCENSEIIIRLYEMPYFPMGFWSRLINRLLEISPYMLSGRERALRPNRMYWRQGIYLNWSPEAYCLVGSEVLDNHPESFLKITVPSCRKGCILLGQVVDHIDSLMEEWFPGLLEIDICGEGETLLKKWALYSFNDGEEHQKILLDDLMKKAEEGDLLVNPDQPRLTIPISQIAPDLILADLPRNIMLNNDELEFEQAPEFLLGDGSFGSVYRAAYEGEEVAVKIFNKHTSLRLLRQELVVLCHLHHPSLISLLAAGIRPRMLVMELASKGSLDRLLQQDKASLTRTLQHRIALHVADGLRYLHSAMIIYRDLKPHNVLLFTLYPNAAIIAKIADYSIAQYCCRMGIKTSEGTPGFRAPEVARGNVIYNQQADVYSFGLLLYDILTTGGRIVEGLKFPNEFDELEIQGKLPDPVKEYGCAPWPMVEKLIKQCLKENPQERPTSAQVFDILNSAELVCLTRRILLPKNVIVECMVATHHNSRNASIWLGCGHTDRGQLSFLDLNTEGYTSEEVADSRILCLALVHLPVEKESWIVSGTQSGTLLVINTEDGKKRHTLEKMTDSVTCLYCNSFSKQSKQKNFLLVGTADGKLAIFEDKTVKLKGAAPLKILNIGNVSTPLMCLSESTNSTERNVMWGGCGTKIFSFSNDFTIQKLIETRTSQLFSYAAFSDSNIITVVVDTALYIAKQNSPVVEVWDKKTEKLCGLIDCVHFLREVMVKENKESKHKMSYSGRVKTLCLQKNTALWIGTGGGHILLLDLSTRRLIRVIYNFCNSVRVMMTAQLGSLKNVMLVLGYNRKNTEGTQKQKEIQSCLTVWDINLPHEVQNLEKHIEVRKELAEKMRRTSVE

This experiment has as its target T1, LRRK2 (G2019S) (Homo sapiens, UniProt Q5S007, G2019S).
T1 construct: Recombinant GST-LRRK2 (delta970), purified from baculovirus infected insect cells (SF9); GST (N); host or cells: baculovirus infected insect cells (SF9)
Briefly: LRRK2 inhibition, radiometric kinase assay with recombinant GST-LRRK2 (delta970) and peptide substrate. It is filed as biochemical. To be noted: GST-LRRK2 (delta970) G2019S 30 nM, ATP ~52 μM (Km), 30 min at 30° C. Here is the method: Compounds were assessed for inhibition of LRRK2 inhibition using the following procedure.
Recombinant GST-LRRK2 (delta970), purified from baculovirus infected insect cells (SF9), at least 90% pure and either wild-type sequence or bearing the pathogenic G2019S mutation, was combined into a kinase buffer at 30 nM concentration. Kinase buffer consists of 50 mM Tris HCl pH 7.4, 1 mM EDTA, and 50 μM peptide substrate (amino acid sequence […]). Experimental compounds or control (no compound) were added at desired concentrations in DMSO and water, where final concentration of DMSO in kinase reactions was 0.1% for all drug concentrations. Activation buffer that consists of a final concentration in the reactions of 10 mM MgCl2 and ATP (˜92 μM for WT-LRRK2 reactions and ˜52 μM for G2019S-LRRK2, which represent respective Km ATP concentrations) were added to each reaction, in addition to 0.5 μCi of gamma-32-P-dATP per reaction. Reactions were incubated at 1400 RPM at 30° C. for 30 min. and then spotted in triplicate directly onto a slot-blot apparatus fitted with phospho-cellulose paper and allowed to dry. Each slot was then washed with 10 mM phosphoric acid buffer until beta-radiation could not be detected in eluted wash buffer, usually ˜1 mL per slot. Paper within each slot were excised and radiation measured by liquid scintillation.
In the case of `CCC(Sc1ccc2nnc(-c3ccccc3F)n2n1)C(N)=O` (centres unmarked) [Example 80, 2-((3-(2-fluorophenyl)-[1,2,4]triazolo[4,3-b]pyridazin-6-yl)thio)butanamide], the half-maximal inhibitory concentration (IC50) lay within 100 to 1000 nM.
Turning to `CCC(Sc1ccc2nnc(-c3cccc(F)c3)n2n1)C(N)=O` (centres unmarked) [Example 81, 2-((3-(3-fluorophenyl)-[1,2,4]triazolo[4,3-b]pyridazin-6-yl)thio)butanamide], the IC50 fell in the range of 100 to 1000 nM.
Next, `CCOC(=O)C(CC)Oc1ccc2nnc(-c3cccs3)n2n1` (centres unmarked) [Example 82, ethyl 2-((3-(thiophen-2-yl)-[1,2,4]triazolo[4,3-b]pyridazin-6-yl)oxy)butanoate]: not below 5000 nM.
Then `CCC(Oc1ccc2nnc(-c3cccs3)n2n1)C(=O)O` (centres unmarked) [Example 83, 2-((3-(thiophen-2-yl)-[1,2,4]triazolo[4,3-b]pyridazin-6-yl)oxy)butanoic acid], with not below 5000 nM; and `CCC(Oc1ccc2nnc(-c3cccs3)n2n1)C(N)=O` (centres unmarked) [Example 84, 2-((3-(thiophen-2-yl)-[1,2,4]triazolo[4,3-b]pyridazin-6-yl)oxy)butanamide], with not below 5000 nM.
In the case of `CCC(Oc1ccc2nnc(-c3cccs3)n2n1)C(=O)N1CCCCC1` (centres unmarked) [Example 85, 1-(piperidin-1-yl)-2-((3-(thiophen-2-yl)-[1,2,4]triazolo[4,3-b]pyridazin-6-yl)oxy)butan-1-one], the concentration for half-maximal inhibition (IC50) was not below 5000 nM.
Then `CCC(Sc1ccc2nnc(-c3cccs3)n2n1)C(=O)Nc1ccccc1` (centres unmarked) [Example 86, N-phenyl-2-((3-(thiophen-2-yl)-[1,2,4]triazolo[4,3-b]pyridazin-6-yl)thio)butanamide], with not below 5000 nM; and `CCc1ccc(-c2nnc3ccc(SC(CC)C(=O)N4CCCCC4)nn23)s1` (centres unmarked) [Example 87, 2-((3-(5-ethylthiophen-2-yl)-[1,2,4]triazolo[4,3-b]pyridazin-6-yl)thio)-1-(piperidin-1-yl)butan-1-one], with 100 to 1000 nM.
Take `CCc1ccc(-c2cnc3ccc(SC(CC)C(=O)O)nn23)s1` (centres unmarked) [Example 88, 2-((3-(5-ethylthiophen-2-yl)imidazo[1,2-b]pyridazin-6-yl)thio)butanoic acid]: the IC50 lay in the range of 1000 to 5000 nM.
Take `CCC(Sc1ccc2nnc(-c3ccc(C)s3)n2n1)C(=O)O` (centres unmarked) [Example 89, 2-((3-(5-methylthiophen-2-yl)-[1,2,4]triazolo[4,3-b]pyridazin-6-yl)thio)butanoic acid]: the half-inhibitory concentration (IC50) is 100 to 1000 nM.
Regarding `NC(=O)CS(=O)(=O)c1ccc2nnc(-c3cccs3)n2n1` [Example 91, 2-((3-(thiophen-2-yl)-[1,2,4]triazolo[4,3-b]pyridazin-6-yl)sulfonyl)acetamide], the 50% inhibitory concentration (IC50) lay within 1000 to 5000 nM.
For `CCCC(Sc1ccc2nnc(-c3cccs3)n2n1)C(=O)O` (centres unmarked) [Example 92, 2-((3-(thiophen-2-yl)-[1,2,4]triazolo[4,3-b]pyridazin-6-yl)thio)pentanoic acid], the half-inhibitory concentration (IC50) lay within 100 to 1000 nM.
With `CCCC(Sc1ccc2nnc(-c3cccs3)n2n1)C(=O)N1CCCCC1` (centres unmarked) [Example 93, 1-(piperidin-1-yl)-2-((3-(thiophen-2-yl)-[1,2,4]triazolo[4,3-b]pyridazin-6-yl)thio)pentan-1-one], the IC50 lay within 100 to 1000 nM.
With `CCC(Sc1ccc2nnc(-c3ccccc3F)n2n1)C(=O)N1CCCCC1` (centres unmarked) [Example 94, 2-((3-(2-fluorophenyl)-[1,2,4]triazolo[4,3-b]pyridazin-6-yl)thio)-1-(piperidin-1-yl)butan-1-one], the IC50 is 100 to 1000 nM.
Next, `CCC(Sc1ccc2nnc(-c3ccc(C(F)(F)F)cc3)n2n1)C(=O)N1CCCCC1` (centres unmarked) [Example 95, 1-(piperidin-1-yl)-2-((3-(4-(trifluoromethyl)phenyl)-[1,2,4]triazolo[4,3-b]pyridazin-6-yl)thio)butan-1-one]: 1000 to 5000 nM; `CCC(Sc1ccc2nnc(-c3ccc(F)c(F)c3)n2n1)C(=O)N1CCCCC1` (centres unmarked) [Example 96, 2-((3-(3,4-difluorophenyl)-[1,2,4]triazolo[4,3-b]pyridazin-6-yl)thio)-1-(piperidin-1-yl)butan-1-one]: 100 to 1000 nM; `CCC(Sc1ccc2nnc(-c3cccc(F)c3)n2n1)C(=O)N1CCCCC1` (centres unmarked) [Example 97, 2-((3-(3-fluorophenyl)-[1,2,4]triazolo[4,3-b]pyridazin-6-yl)thio)-1-(piperidin-1-yl)butan-1-one]: 100 to 1000 nM.
Then `CCC(Nc1ccc2nnc(-c3cccs3)n2n1)C(=O)OC` (centres unmarked) [Example 98, methyl 2-((3-(thiophen-2-yl)-[1,2,4]triazolo[4,3-b]pyridazin-6-yl)amino)butanoate], with not below 5000 nM; and `CCC(Nc1ccc2nnc(-c3cccs3)n2n1)C(N)=O` (centres unmarked) [Example 99, 2-((3-(thiophen-2-yl)-[1,2,4]triazolo[4,3-b]pyridazin-6-yl)amino)butanamide], with not below 5000 nM.
As for `CCC(Nc1ccc2nnc(-c3cccs3)n2n1)C(=O)N1CCCCC1` (centres unmarked) [Example 100, 1-(piperidin-1-yl)-2-((3-(thiophen-2-yl)-[1,2,4]triazolo[4,3-b]pyridazin-6-yl)amino)butan-1-one], the IC50 is not below 5000 nM.
Then `CC(Sc1ccc2nnc(-c3cccs3)n2n1)C(=O)N1CCC1` (centres unmarked) [Example 101, 1-(azetidin-1-yl)-2-((3-(thiophen-2-yl)-[1,2,4]triazolo[4,3-b]pyridazin-6-yl)thio)propan-1-one], with less than 100 nM; and `CCOC(=O)C1CCCN(C(=O)C(CC)Sc2ccc3nnc(-c4cccs4)n3n2)C1` (centres unmarked) [Example 103, ethyl 1-(2-((3-(thiophen-2-yl)-[1,2,4]triazolo[4,3-b]pyridazin-6-yl)thio)butanoyl)piperidine-3-carboxylate], with 1000 to 5000 nM; and `CCC(Sc1ccc2nnc(-c3cccs3)n2n1)C(=O)N1CCCCC1C` (centres unmarked) [Example 104, 1-(2-methylpiperidin-1-yl)-2-((3-(thiophen-2-yl)-[1,2,4]triazolo[4,3-b]pyridazin-6-yl)thio)butan-1-one], with 100 to 1000 nM.
Next, `CC(Sc1ccc2nnc(-c3cccs3)n2n1)C(=O)N1CCCC1` (centres unmarked) [Example 105, 1-(pyrrolidin-1-yl)-2-((3-(thiophen-2-yl)-[1,2,4]triazolo[4,3-b]pyridazin-6-yl)thio)propan-1-one]: less than 100 nM; `CCC(Sc1ccc2nnc(-c3ccccc3)n2n1)C(=O)N1CCCCC1` (centres unmarked) [Example 106, 2-((3-phenyl-[1,2,4]triazolo[4,3-b]pyridazin-6-yl)thio)-1-(piperidin-1-yl)butan-1-one]: 100 to 1000 nM; `CC(C)(Sc1ccc2nnc(-c3cccs3)n2n1)C(=O)N1CCCC1` [Example 107, 2-methyl-1-(pyrrolidin-1-yl)-2-((3-(thiophen-2-yl)-[1,2,4]triazolo[4,3-b]pyridazin-6-yl)thio)propan-1-one]: 1000 to 5000 nM.
Consider `CC(Sc1ccc2nnc(-c3cnccn3)n2n1)C(=O)N1CCCCC1` (centres unmarked) [Example 108, 1-(piperidin-1-yl)-2-((3-(pyrazin-2-yl)-[1,2,4]triazolo[4,3-b]pyridazin-6-yl)thio)propan-1-one], for which the IC50 lay within 100 to 1000 nM.
On to `CC(Sc1ccc2nnc(-c3ncccn3)n2n1)C(=O)N1CCCCC1` (centres unmarked) [Example 109, 1-(piperidin-1-yl)-2-((3-(pyrimidin-2-yl)-[1,2,4]triazolo[4,3-b]pyridazin-6-yl)thio)propan-1-one], for which the concentration for half-maximal inhibition (IC50) lay in the range of 100 to 1000 nM.
Then `CC(Sc1ccc2nnc(-c3cscn3)n2n1)C(=O)N1CCCCC1` (centres unmarked) [Example 110, 1-(piperidin-1-yl)-2-((3-(thiazol-4-yl)-[1,2,4]triazolo[4,3-b]pyridazin-6-yl)thio)propan-1-one], with 100 to 1000 nM; and `CC(Sc1ccc2nnc(-c3cscn3)n2n1)C(=O)N1CCCC1` (centres unmarked) [Example 111, 1-(pyrrolidin-1-yl)-2-((3-(thiazol-4-yl)-[1,2,4]triazolo[4,3-b]pyridazin-6-yl)thio)propan-1-one], with 100 to 1000 nM; and `CC(Sc1ccc2nnc(-c3ccnn3C)n2n1)C(=O)N1CCCCC1` (centres unmarked) [Example 112, 2-((3-(1-methyl-1H-pyrazol-5-yl)-[1,2,4]triazolo[4,3-b]pyridazin-6-yl)thio)-1-(piperidin-1-yl)propan-1-one], with not below 5000 nM.
As for `CC(Sc1ccc2nnc(-c3ccn(C)n3)n2n1)C(=O)N1CCCCC1` (centres unmarked) [Example 113, 2-((3-(1-methyl-1H-pyrazol-3-yl)-[1,2,4]triazolo[4,3-b]pyridazin-6-yl)thio)-1-(piperidin-1-yl)propan-1-one], the IC50 was in the range of 100 to 1000 nM.
Next, `CCC(Sc1ccc2nnc(-c3cccs3)n2n1)C(=O)N1CCC1` (centres unmarked) [Example 114, 1-(azetidin-1-yl)-2-((3-(thiophen-2-yl)-[1,2,4]triazolo[4,3-b]pyridazin-6-yl)thio)butan-1-one]: 100 to 1000 nM.
Regarding `CC(Sc1ccc2nnc(-c3ccn[nH]3)n2n1)C(=O)N1CCCCC1` (centres unmarked) [Example 115, 2-((3-(1H-pyrazol-5-yl)-[1,2,4]triazolo[4,3-b]pyridazin-6-yl)thio)-1-(piperidin-1-yl)propan-1-one], the IC50 was 100 to 1000 nM.
Next, `CCCN(CCC)C(=O)C(C)Sc1ccc2nnc(-c3cccs3)n2n1` (centres unmarked) [Example 123, N,N-dipropyl-2-((3-(thiophen-2-yl)-[1,2,4]triazolo[4,3-b]pyridazin-6-yl)thio)propanamide]: 1000 to 5000 nM.
